One molecule from patent US10105343B2, “Cannabis based compositions and methods of treating hypertension” (KUBBY PATENT AND LICENSES, LIMITED LIABILITY COMPANY, priority 2010, dated 2018) can be followed below.

The subject of the series is hypertension. Briefly: Inventor's own case: control of hypertension in adrenal cancer (anecdotal patient report). In kind it is in vivo, human. Particulars: single patient (the inventor). The text has this:
In 1999, this inventor's doctors told them that after completing extensive medical tests at the University of Southern California's School of Medicine their prognosis was poor. According to Dr. Vincent DeQuattro, a USC professor and world authority on adrenal cancer, their blood contained deadly levels of adrenaline, more than enough to kill anyone else.
Nearly everyone else who has ever had the malignant form of the inventor's disease has died within a few years. The inventor credits their survival, now 35 years since their diagnosis, to medical marijuana, something DeQuattro considered a “medical miracle.” Dr. DeQuattro has written that the inventor could suffer a heart attack or stroke if deprived of marijuana and that no other form of therapy is available.
Despite the seriousness and dramatic dangers of their disease, a person was arrested and jailed for using the only medicine that worked for them. During their first few days of incarceration, they experienced excruciating pain, a vicious high blood-pressure crisis, passed blood in their urine and over a period of 60 days, and lost 33 pounds.
That's when […] started to experiment with lozenges to see if […] could create a natural cannabis based lozenge that would control hypertension, without undesirable side effects.
This led the Inventor to the development that is taught in this invention.

`CCCCCc1cc(O)c2c(c1)OC(C)(C)[C@@H]1CCC(C)=C[C@@H]21` [Marinol, tetrahydrocannabinol]: the undesirable side effects entry is reported as “constant nausea”. In addition, under “adrenal cancer with deadly adrenaline levels”, the controlling hypertension result was “extremely effective”. Also, the “substitute for whole cannabis in treating the inventor's otherwise fatal disease” value (during incarceration) is “acceptable, if not ideal, substitute”.
